Like-named read-outs stand apart in the source and are kept apart here.
How the values were obtained:
Assay in all cases: IC50 assay, NSCLC cell lines (Cell Titer Glo, total ATP)
Format in all cases: cell-based
Settings in all cases: Homo sapiens
[1] = tested on: Calu-6
Experimental: (§1) Cells were plated at ˜15% confluence in a media comprising 5% concentration of fetal bovine serum supplemented with RPMI, which included 2 mM L-Glutamine in a 96 well dish. […] Following three days of incubation in a 5% CO2 incubator, the total ATP in each well was quantified using Cell Titer Glo (Promega). […] The solid lines represent the medians.

[2] = tested on: H125
Experimental: as §1

[3] = tested on: H1355
Experimental: as §1

[4] = tested on: H1373
Experimental: as §1

[5] = tested on: H1395
Experimental: as §1

[6] = tested on: H1437
Experimental: as §1

[7] = tested on: H1568
Experimental: as §1

[8] = tested on: H1650
Experimental: as §1

[9] = tested on: H1703
Experimental: as §1

[10] = tested on: H2009
Experimental: as §1

[11] = tested on: H2122
Experimental: as §1

[12] = tested on: H2172
Experimental: as §1

[13] = tested on: H2444
Experimental: as §1

[14] = tested on: H2882
Experimental: as §1

[15] = tested on: H292
Experimental: as §1

[16] = tested on: H358
Experimental: as §1

[17] = tested on: H441
Experimental: as §1

[18] = tested on: H522
Experimental: as §1

[19] = tested on: H820
Experimental: as §1

[20] = tested on: H838
Experimental: as §1

[21] = tested on: HCC15
Experimental: as §1

[22] = tested on: HCC2279
Experimental: as §1

[23] = tested on: HCC2450
Experimental: as §1

[24] = tested on: HCC2814
Experimental: as §1

[25] = tested on: HCC4006
Experimental: as §1

[26] = tested on: HCC4017
Experimental: as §1

[27] = tested on: HCC95
Experimental: as §1

[28] = tested on: LC-2/AD
Experimental: as §1

[29] = read-out: Indisulam IC50 (log 10) (converted), U2AF1 WT
[30] = read-out: Indisulam IC50, U2AF1 WT

NS(=O)(=O)c1ccc(S(=O)(=O)Nc2cccc3c(Cl)c[nH]c23)cc1 [Indisulam, indisulam]
IC50 [1, 29]: 1.51 µM | IC50 [1, 30]: 1.51 µM | IC50 ([2]; NCI-H125, read-out: Indisulam IC50 (log 10) (converted), U2AF1 WT): 10.8 µM | IC50 ([2]; NCI-H125, read-out: Indisulam IC50, U2AF1 WT): 10.8 µM | IC50 ([3]; NCI-H1355, read-out: Indisulam IC50 (log 10) (converted), U2AF1 WT): 2.5 µM | IC50 ([3]; NCI-H1355, read-out: Indisulam IC50, U2AF1 WT): 2.5 µM | IC50 ([4]; NCI-H1373, read-out: Indisulam IC50 (log 10) (converted), U2AF1 S34F): 0.23 µM | IC50 ([4]; NCI-H1373, read-out: Indisulam IC50, U2AF1 S34F): 0.23 µM | IC50 ([5]; NCI-H1395, read-out: Indisulam IC50 (log 10) (converted), U2AF1 WT): 10.9 µM | IC50 ([5]; NCI-H1395, read-out: Indisulam IC50, U2AF1 WT): 10.9 µM | IC50 ([6]; NCI-H1437, read-out: Indisulam IC50 (log 10) (converted), U2AF1 WT): 14 µM | IC50 ([6]; NCI-H1437, read-out: Indisulam IC50, U2AF1 WT): 14 µM | IC50 ([7]; NCI-H1568, read-out: Indisulam IC50 (log 10) (converted), U2AF1 WT): 265 µM | IC50 ([7]; NCI-H1568, read-out: Indisulam IC50, U2AF1 WT): 265 µM | IC50 ([8]; NCI-H1650, read-out: Indisulam IC50 (log 10) (converted), U2AF1 WT): 31.9 µM | IC50 ([8]; NCI-H1650, read-out: Indisulam IC50, U2AF1 WT): 31.9 µM | IC50 ([9]; NCI-H1703, read-out: Indisulam IC50 (log 10) (converted), U2AF1 WT): 3.33 µM | IC50 ([9]; NCI-H1703, read-out: Indisulam IC50, U2AF1 WT): 3.33 µM | IC50 ([10]; NCI-H2009, read-out: Indisulam IC50 (log 10) (converted), U2AF1 WT): 17.4 µM | IC50 ([10]; NCI-H2009, read-out: Indisulam IC50, U2AF1 WT): 17.4 µM | IC50 ([11]; NCI-H2122, read-out: Indisulam IC50 (log 10) (converted), U2AF1 WT): 18.8 µM | IC50 ([11]; NCI-H2122, read-out: Indisulam IC50, U2AF1 WT): 18.8 µM | IC50 ([12]; NCI-H2172, read-out: Indisulam IC50 (log 10) (converted), U2AF1 WT): 20.5 µM | IC50 ([12]; NCI-H2172, read-out: Indisulam IC50, U2AF1 WT): 20.5 µM | IC50 ([13]; NCI-H2444, read-out: Indisulam IC50 (log 10) (converted), U2AF1 WT): 14.1 µM | IC50 ([13]; NCI-H2444, read-out: Indisulam IC50, U2AF1 WT): 14.1 µM | IC50 ([14]; NCI-H2882, read-out: Indisulam IC50 (log 10) (converted), U2AF1 WT): 12.2 µM | IC50 ([14]; NCI-H2882, read-out: Indisulam IC50, U2AF1 WT): 12.2 µM | IC50 ([15]; NCI-H292, read-out: Indisulam IC50 (log 10) (converted), U2AF1 WT): 1.12 µM | IC50 ([15]; NCI-H292, read-out: Indisulam IC50, U2AF1 WT): 1.12 µM | IC50 ([16]; NCI-H358, read-out: Indisulam IC50 (log 10) (converted), U2AF1 WT): ≥ 500 µM | IC50 ([16]; NCI-H358, read-out: Indisulam IC50, U2AF1 WT): 2840 µM | IC50 ([17]; NCI-H441, read-out: Indisulam IC50 (log 10) (converted), U2AF1 S34F): 59.5 µM | IC50 ([17]; NCI-H441, read-out: Indisulam IC50, U2AF1 S34F): 59.5 µM | IC50 ([18]; NCI-H522, read-out: Indisulam IC50 (log 10) (converted), U2AF1 WT): 1.22 µM | IC50 ([18]; NCI-H522, read-out: Indisulam IC50, U2AF1 WT): 1.22 µM | IC50 ([19]; NCI-H820, read-out: Indisulam IC50 (log 10) (converted), U2AF1 WT): 5.17 µM | IC50 ([19]; NCI-H820, read-out: Indisulam IC50, U2AF1 WT): 5.17 µM | IC50 ([20]; NCI-H838, read-out: Indisulam IC50 (log 10) (converted), U2AF1 WT): 1.03 µM | IC50 ([20]; NCI-H838, read-out: Indisulam IC50, U2AF1 WT): 1.03 µM | IC50 [21, 29]: 6.32 µM | IC50 [21, 30]: 6.32 µM | IC50 [22, 29]: 5.68 µM | IC50 [22, 30]: 5.68 µM | IC50 [23, 29]: 135 µM | IC50 [23, 30]: 135 µM | IC50 [24, 29]: 8.72 µM | IC50 [24, 30]: 8.72 µM | IC50 [25, 29]: 0.735 µM | IC50 [25, 30]: 0.735 µM | IC50 [26, 29]: 12.6 µM | IC50 [26, 30]: 12.6 µM | IC50 [27, 29]: 9.5 µM | IC50 [27, 30]: 9.5 µM | IC50 ([28]; read-out: Indisulam IC50 (log 10) (converted), U2AF1 S34F): 0.376 µM | IC50 ([28]; read-out: Indisulam IC50, U2AF1 S34F): 0.376 µM
